A word on the Kd: it is the concentration at which binding is half-saturated.

This note sets out measurements from patent US8067418B2, “Tricyclic angiotensin II agonists” (Vicore Pharma AB, priority 2005, dated 2011).

The test system of test [1] is duodenal mucosa. The experiment in a line: Test C: duodenal mucosal alkaline secretion assay. The test is classed as in vivo. Conditions: co-administration with title compounds of the Examples, anaesthetised rats. An excerpt:
Duodenal Mucosal Alkaline Secretion Assay
Compounds were exposed to the duodenal mucosa in barbiturate-anaesthetised rats prepared for in situ titration of duodenal mucosal alkaline secretion, according to the methodology described by Flemström et al in Am. J. Physiol. (1982) 243, G348.

The target of test [2] is T1, AT2 receptor (Sus scrofa, UniProt A0A4X1W622).
T1 sequence (A0A4X1W622 1-362): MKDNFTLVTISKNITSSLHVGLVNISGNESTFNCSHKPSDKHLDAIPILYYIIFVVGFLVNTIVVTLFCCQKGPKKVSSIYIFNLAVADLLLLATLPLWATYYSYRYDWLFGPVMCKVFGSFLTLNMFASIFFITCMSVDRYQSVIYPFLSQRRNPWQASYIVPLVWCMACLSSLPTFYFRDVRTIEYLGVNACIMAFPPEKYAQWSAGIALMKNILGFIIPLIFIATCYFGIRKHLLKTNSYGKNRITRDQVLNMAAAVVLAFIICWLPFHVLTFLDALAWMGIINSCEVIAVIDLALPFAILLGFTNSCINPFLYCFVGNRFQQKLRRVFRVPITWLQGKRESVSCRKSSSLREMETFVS
Conditions: read-out: dissociation constant (Kd) at AT2 receptor; Scatchard analysis, porcine myometrial membranes, [L]=0.057 nM.
Method: Myometrial membranes were prepared from porcine uteri according to the method by Nielsen et al (Clin. Exp. Pharm. Phys. (1997) 24, 309). […] Samples were incubated at 25° C. for 1 h, and binding was terminated by filtration through Whatman GF/B glass-fiber filter sheets using a Brandel cell harvester. The filters were washed with 3×3 mL of Tris-HCl (pH 7.4) and transferred to tubes. The radioactivity was measured using a gamma counter. […] The binding data were best fitted with a one-site fit. All experiments were performed at least in triplicate.

On to `Cc1cc(Cn2cnc3c2C[C@@H](C(=O)O)N(C(=O)C(c2ccccc2)c2ccccc2)C3)ccc1N(C)C` [PD123319], for which, in test [1], the “effect of co-administration on the mucosal alkalisation stimulated by title compounds” value is on record as “blocked”. For “Asp^1-Arg^2-Val^3-Tyr^4-Ile^5-His^6-Pro^7-Phe^8 [Ang II]”, the Kd in test [2] stood at 0.7 ± 0.1 nM.
